The results in this text go back to publication PMC9393241, “Design, Synthesis, and Activity Assays of Cyclin-Dependent Kinase 1 Inhibitors With Flavone Scaffolds” (Frontiers in Chemistry, 2022).

The target of one data set is T1, CDK4/cyclin D3 (Homo sapiens, UniProt P11802).
T1 construct: purchased
The data set is described as follows: In vitro anti-CDK4/cyclin D3 kinase assay (Kinase-Glo luminescence). It is filed as biochemical. To be noted: test compounds at 20 μM; read-out: Inhibition rates (%) CDK4. The method, then:
(§1) In vitro anti-CDK1/cyclin B1 and CDK4/cyclin D3 assays were performed as described by the manufacturer. All test compounds and controls were dissolved in dimethyl sulfoxide (DMSO) to prepare 50 μM stock solutions. The stock solutions were diluted by double-distilled water and buffer to 40, 30, 20, and 10 μM working concentrations and stored at −20°C. Buffer, ATP, CDK substrate […], and distilled water were mixed, and then 25 μl of the mixture was added to a 96-well plate. Five microliters of 20 μM test compounds were sequentially added. CDK1/cyclin B1 was diluted to 1 ng/μl, and CDK4/cyclin D3 was diluted to 10 ng/μl using a buffer. Twenty microliters of the kinase solutions were incubated with the test compounds at 30°C for 45 min for CDK1/cyclin B1 and for 60 min for CDK4/cyclin D3. Finally, 50 μl of Kinase-Glo Max reagent was added to each well. The 96-well plate was covered with aluminum foil and incubated at room temperature for 15 min. Luminescence of the test compounds was measured with a microplate reader.
A general note: Kinase-Glo measures the ATP left after a reaction by luminescence.

The target of another data set is T2, CDK1/cyclin B1 (Homo sapiens, UniProt P06493).
T2 construct: purchased
The data set is described as follows: In vitro anti-CDK1/cyclin B1 kinase assay (Kinase-Glo luminescence). The class given is biochemical. Particulars: for inhibition at 20 µM: test compounds at 20 μM, read-out: Inhibition rates (%) CDK1. The method, then: as §1

T1 sequence (P11802 whole entry): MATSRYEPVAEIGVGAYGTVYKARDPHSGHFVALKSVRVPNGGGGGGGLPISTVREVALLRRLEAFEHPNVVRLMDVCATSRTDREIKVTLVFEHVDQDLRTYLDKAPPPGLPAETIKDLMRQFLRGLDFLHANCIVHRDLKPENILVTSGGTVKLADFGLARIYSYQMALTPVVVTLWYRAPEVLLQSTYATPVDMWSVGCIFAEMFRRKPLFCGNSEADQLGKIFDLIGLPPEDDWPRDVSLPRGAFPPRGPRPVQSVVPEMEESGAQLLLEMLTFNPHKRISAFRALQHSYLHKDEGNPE
T1 sequence (P30281 whole entry partner): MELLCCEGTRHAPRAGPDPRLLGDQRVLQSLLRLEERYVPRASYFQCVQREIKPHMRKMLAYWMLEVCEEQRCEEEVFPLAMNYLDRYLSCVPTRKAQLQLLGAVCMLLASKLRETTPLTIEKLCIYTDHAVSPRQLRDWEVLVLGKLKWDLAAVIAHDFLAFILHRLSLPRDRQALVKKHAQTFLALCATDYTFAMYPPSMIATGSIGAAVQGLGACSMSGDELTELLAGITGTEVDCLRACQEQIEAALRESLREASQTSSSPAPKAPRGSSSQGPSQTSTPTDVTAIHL
T2 sequence (P06493 whole entry): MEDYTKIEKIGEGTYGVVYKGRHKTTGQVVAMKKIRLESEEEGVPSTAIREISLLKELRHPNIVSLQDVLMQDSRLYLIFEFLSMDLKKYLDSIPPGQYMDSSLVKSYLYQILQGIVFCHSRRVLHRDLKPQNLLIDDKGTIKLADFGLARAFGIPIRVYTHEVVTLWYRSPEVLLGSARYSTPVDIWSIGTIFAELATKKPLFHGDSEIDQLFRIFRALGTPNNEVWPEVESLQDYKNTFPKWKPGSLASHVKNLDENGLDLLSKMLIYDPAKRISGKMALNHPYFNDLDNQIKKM
T2 sequence (P14635 whole entry partner): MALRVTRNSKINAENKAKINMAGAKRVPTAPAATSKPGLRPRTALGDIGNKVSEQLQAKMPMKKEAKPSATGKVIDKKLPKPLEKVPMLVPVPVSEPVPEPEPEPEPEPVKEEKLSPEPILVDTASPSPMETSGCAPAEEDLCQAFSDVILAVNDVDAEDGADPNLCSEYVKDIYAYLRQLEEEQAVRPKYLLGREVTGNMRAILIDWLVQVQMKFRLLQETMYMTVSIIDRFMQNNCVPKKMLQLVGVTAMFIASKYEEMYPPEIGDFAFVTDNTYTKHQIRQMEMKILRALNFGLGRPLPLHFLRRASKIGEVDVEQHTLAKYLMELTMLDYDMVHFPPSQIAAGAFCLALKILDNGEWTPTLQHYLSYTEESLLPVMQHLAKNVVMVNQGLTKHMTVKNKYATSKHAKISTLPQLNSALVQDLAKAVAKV

In general, melting point refers to the temperature of the solid-liquid transition. In general, inhibition refers to how much of the control response was suppressed. `COc1ccc(-c2cc(=O)c3c(O)c(CN4CCN(C)CC4)c(O)cc3o2)cc1` [Compound 9a, 5,7-Dihydroxy-2-(4-methoxyphenyl)-6-((4-methylpiperazin-1-yl)methyl)-4H-chromen-4-one] had a melting point of 172.3 to 173.4 °C. Moreover, the inhibition at 20 µM on CDK4/cyclin D3 stood at 5.43 ± 0.06%. Further, the inhibition at 20 µM on CDK1/cyclin B1 came to 26.36 ± 0.09%.
The compound `CCCN(CCC)Cc1c(O)cc2oc(-c3ccc(OC)cc3)cc(=O)c2c1O` [Compound 9b, 6-((Dipropylamino)methyl)-5,7-dihydroxy-2-(4-methoxyphenyl)-4H-chromen-4-one] came in with a melting point of 180.6 to 181.3 °C. Also, the inhibition at 20 µM at CDK4/cyclin D3 amounted to 8.55 ± 0.09%. Further, on CDK1/cyclin B1, the inhibition at 20 µM stood at 30.69 ± 0.1%.
The like results for `COc1ccc(-c2cc(=O)c3c(O)c(CN4CCCC4)c(O)c(CN4CCCC4)c3o2)cc1` [Compound 10a, 5,7-Dihydroxy-2-(4-methoxyphenyl)-6,8-bis(pyrrolidin-1-ylmethyl)-4H-chromen-4-one] were, in that order, 207.1 to 207.3 °C, 4.68 ± 0.07% and 24.07 ± 0.1%.
The like results for `COc1ccc(-c2cc(=O)c3c(O)c(CN4CCN(C)CC4)c(O)c(CN4CCN(C)CC4)c3o2)cc1` [Compound 10c, 5,7-Dihydroxy-2-(4-methoxyphenyl)-6,8-bis((4-methylpiperazin-1-yl)methyl)-4H-chromen-4-one] were, in that order, 161.8 to 161.9 °C, 8.57 ± 0.09% and 27.7 ± 0.12%.
The matching figures for `COc1ccc(-c2cc(=O)c3c(O)c(CN(C)C)c(O)c(CN(C)C)c3o2)cc1` [Compound 10d, 6,8-Bis((dimethylamino)methyl)-5,7-dihydroxy-2-(4-methoxyphenyl)-4H-chromen-4-one]: 191.6 to 193.7 °C, 2.73 ± 0.08% and 35.53 ± 0.08%.
`COc1ccc(-c2cc(=O)c3c(O)cc(OCc4ccccc4)cc3o2)cc1` [Compound 12a, 7-(Benzyloxy)-5-hydroxy-2-(4-methoxyphenyl)-4H-chromen-4-one] registered a melting point of 181.6 to 182.7 °C. Moreover, the inhibition at 20 µM at CDK4/cyclin D3 turned out to be 6 ± 0.04%. Moreover, at CDK1/cyclin B1, the inhibition at 20 µM turned out to be 32.38 ± 0.11%.
A word on the IC50: it is the concentration needed to halve the response being measured. A lower IC50 goes with greater potency in that assay. The compound `COc1ccc(-c2cc(=O)c3c(O)cc(OCCCCBr)cc3o2)cc1` [Compound 12d, 7-(4-Bromobutoxy)-5-hydroxy-2-(4-methoxyphenyl)-4H-chromen-4-one] returned a melting point of 178.9 to 179.8 °C. In addition, the inhibition at 20 µM on CDK4/cyclin D3 was found to be 3.47 ± 0.04%. Further, on CDK1/cyclin B1, half-maximal inhibition (IC50) required 51.4 ± 1.56 µM and the inhibition at 20 µM worked out at 36.91 ± 0.08%.
